The record followed here is patent publication US20220249661A1, “Pharmaceutical composition for preventing or treating inflammatory bowel disease comprising Tumor necrosis factor alpha inhibitor and Prostaglandin E2” (SAMSUNG LIFE PUBLIC WELFARE FOUNDATION, priority 2021, published 2022).

Type in all cases: cell-based, human
Experiment [1] deals with normal person-derived intestinal organoids. Description: Organoid reconstitution assay, normal person-derived organoids. The protocol: (§1) In order to evaluate the organoid-forming ability of intestinal crypts obtained from normal persons and patients with Crohn's disease, 100 intestinal crypts per 25 μL of Matrigel were dispensed into maintenance medium. The culture medium was changed once every two days. The number of viable organoids and enteroids per well was counted under a microscope (CK40, Olympus). The organoid-forming efficiency was calculated as the ratio of available organoids per 100 intestinal crypts. The organoid reconstitution rate was calculated by counting the number of organoids on day 4 and the number of organoids on day 10. Statistical analysis was performed by ANOVA using Bonferroni's multiple comparison test (* p<0.05, ** p<0.01 and *** p<0.001).
(§2) Normal person-derived organoids were cultured in a maintenance medium for 2 days to obtain a stable number of organoids, and then the medium was replaced with a differentiation medium every 2 days. For each experimental group, human recombinant TNFα and PGE2 (Cayman Chemical Company) or infliximab were added to the culture medium every day. The organoid reconstitution rate was calculated by comparing the number of organoids on day 4 and the number of organoids on day 10.

Experiment [2] has as its system Crohn's disease patient-derived intestinal organoids. As to the kind of experiment: Organoid reconstitution assay, Crohn's disease patient-derived organoids. How it is done:
as §1, §2
(§3) FIGS. 20 and 21 show the results of analyzing the changes in organoid reconstitution rate and cell viability of TNFα-treated Crohn's disease patient-derived organoids by infliximab and PGE2. Cases in need of actual infliximab treatment or potential PGE2 treatment are Crohn's disease patients, and based on the information obtained from the normal person-derived organoids, the effects of infliximab and PGE2 on Crohn's disease patient-derived organoids with reduced intestinal epithelial regeneration ability were evaluated.

For experiment [3], the system named is normal person-derived intestinal organoids. As to the kind of experiment: MTT assay (cell viability), normal person-derived organoids. How it is done:
(§4) To evaluate the cell viability of organoids, 100 μL of basal medium containing MTT (3-[4,5-dimethylthiazol-2-yl]-2,5-diphenyltetrazolium bromide) (Sigma-Aldrich) at a concentration of 500 μg/ml was added to each well of a culture plate and incubated for 2 hours at 37° C. To remove the medium and dissolve the Matrigel, 10 μL of 21 SDS (sodium dodecyl sulfate) solution was added thereto, followed by incubation for 2 hours. After adding 100 μL of detergent reagent, the organoids were further incubated for 1 hour, and the absorbance was measured at 562 nm for quantification. Statistical analysis was performed by ANOVA using Bonferroni's multiple comparison test (* p<0.05, ** p<0.01 and *** p<0.001).
(§5) To evaluate cell viability, MTT assay was performed in the same manner as in Experimental Example 2. Statistical analysis was performed by ANOVA using Bonferroni's multiple comparison test (* p<0.05, ** p<0.01 and *** p<0.001).

Experiment [4] deals with Crohn's disease patient-derived intestinal organoids. As to the kind of experiment: MTT assay (cell viability), Crohn's disease patient-derived organoids. The protocol: as §4, §5, §3
Experiment [5] deals with Crohn's disease patient-derived organoids. As to the kind of experiment: Wound healing assay, two-dimensional Crohn's disease patient-derived organoid monolayers. The protocol: (§6) For matrix coating, each well of the 24-well plate was coated at 37° C. for 1 hour with 500 μL of Matrigel diluted at a concentration of 51 in the basal medium. For two-dimensional culture, organoids in the three-dimensional culture were digested into single cells using TrypLE Express (Thermo Fisher). The digested cells were resuspended in the basal medium and seeded into Matrigel-coated wells.
(§7) For wound healing assay, 5×10^4 cells were seeded in wells of a 24-well plate containing inserts of CytoSelect™ 24-Well Wound Healing Assay. The two-dimensional organoid monolayers were cultured in maintenance medium until confluence was reached. The inserts were then carefully removed to produce 0.9-mm-diameter wounds, and 500 μL of fresh differentiation medium was added to each well. Then, the cells in the wound were monitored using a phase-contrast microscope at 0, 4, 8, 16, and 24 hours. At each time point, the area of the non-healed wound was measured in 3 different regions. Statistical analysis was performed by ANOVA using Bonferroni's multiple comparison test (* p<0.05, ** p<0.01 and *** p<0.001).
In addition, wound healing assay was performed in the same manner as in Experimental Example 7.
For the Crohn's disease patient-derived organoids of each experimental group, 30 ng/mL of human recombinant TNFα, or 10 nM of PGE2, and 1 or 10 μg/mL of infliximab were added to the culture medium daily. Statistical analysis was performed by ANOVA using Bonferroni's multiple comparison test (** p<0.01 and *** p<0.001).

In experiment [6] the test system is LGR5. Description: qPCR for LGR5 in Crohn's disease patient-derived organoids. The following applies: TNFα 0, 30 or 100 ng/mL + high concentration (infliximab 10 μg/mL or PGE2 10 nM). The protocol:
For the Crohn's disease patient-derived organoids of each experimental group, 0, 30 or 100 ng/mL of human recombinant TNFα, 0, 5 or 10 nM of PGE2, and 0, 1 or 10 μg/mL of infliximab were added to the culture medium daily.
Total RNA was extracted from intestinal organoids using the RNeasy Mini Kit (QIAGEN). One-step qPCR was performed using the following primers together with One Step PrimeScript™ III RT-qPCR Mix (Takara): LGR5 primers (forward: 5′-[…]-3′, reverse: 5′-[…]-3′). Statistical analysis was performed by ANOVA using Bonferroni's multiple comparison test (* p<0.05 and *** p<0.001).

Experiment [7] has as its system LGR5. As to the kind of experiment: FACS analysis for LGR5 in Crohn's disease patient-derived organoids. The following applies: 30 ng/mL TNFα + high concentration (infliximab 10 μg/mL or PGE2 10 nM). How it is done:
For the Crohn's disease patient-derived organoids of each experimental group, 30 ng/mL of human recombinant TNFα, or 10 nM of PGE2, and 1 or 10 μg/mL of infliximab were added to the culture medium daily.
To prepare single-cell suspensions from organoids, organoids were incubated with TrypLE Express in a water bath at 37° C. for 30 minutes. Then, the cells were washed with basal medium and collected by filtration through a 40-μm cell strainer. Flow cytometry for detecting the marker was performed using 1×10^5 cells. Cells were incubated with human Lgr5/GPR49 antibody (R&D Systems) in FACS buffer for 30 min. Unbound antibodies were washed out, and the cells were incubated with Alexa Fluor 488-conjugated anti-mouse immunoglobulin G secondary antibody (Thermo Fisher) for 30 minutes. The cells were then washed, resuspended in FACS buffer, and analyzed on the FACS Aria III instrument (BD Biosciences) to evaluate LGR5+ ISCs population.

In experiment [8] the test system is normal person-derived organoids. Description: EdU assay (cell proliferation), normal person-derived organoids. The settings on record: 30 ng/mL TNFα vs TNFα-untreated. How it is done: (§8) To evaluate the cell proliferation of organoids, each organoid was incubated for 2 hours in a medium containing 10 μM of EdU (5-ethynyl-2′-deoxyuridine) (Abcam), and then fixed with cold 41 paraformaldehyde (Biosesang). EDU incorporation in DNA was detected using Click-iT™ EdU Alexa Fluor® 488 imaging kit (Thermo Fisher). The number of EDU positive (+) cells in the organoids was counted using a confocal microscope (LSM 800, Carl Zeiss). Statistical analysis was performed by ANOVA using Bonferroni's multiple comparison test (* p<0.05 and *** p<0.001).

Experiment [9] concerns Crohn's disease patient-derived organoids. Description: EdU assay (cell proliferation), Crohn's disease patient-derived organoids. The following applies: 30 ng/mL TNFα; vs normal person-derived organoids. How it is done:
as §8

Experiment [10] concerns normal person-derived organoids. Description: Wound healing assay, two-dimensional normal person-derived organoid monolayers. The settings on record: TNFα-treated; 0-24 hours. The protocol: as §6, §7
Experiment [11] has the same test system. As to the kind of experiment: Double immunofluorescence for CC3 and TUNEL, normal person-derived organoids. The following applies: 30 ng/mL TNFα vs TNFα-untreated. The protocol: (§9) Cell death by TNFα occurs through apoptosis or necroptosis. CC3 (cleaved caspase-3) is a marker capable of detecting cells in which apoptosis has occurred, and TUNEL staining can detect DNA fragmented due to apoptosis, and thus detect cells in which apoptosis or necroptosis has occurred. Therefore, CC3+ and TUNEL+ cells are cells in which apoptosis has occurred, and CC3− and […] cells are cells in which necroptosis has occurred.
(§10) CC3 staining was performed using primary rabbit antibodies specific for CC3 and a goat anti-rabbit secondary antibody conjugated to Alexa 594 fluorochrome (red fluorescence). In TUNEL staining, In Situ Cell Death Detection Kit (Merck) was used for the same sections in CC3 staining, and then fluorescein-labeled dUTP (green fluorescence) was used. DAPI was used to stain intracellular DNA. Statistical analysis was performed by ANOVA using Bonferroni's multiple comparison test (*** p<0.001).

Experiment [12] concerns Crohn's disease patient-derived organoids. As to the kind of experiment: Double immunofluorescence for CC3 and TUNEL, Crohn's disease patient-derived organoids. The settings on record: 30 ng/mL TNFα; vs normal person-derived organoids. How it is done: as §9, §10
The test system of experiment [13] is LGR5. Description: Immunohistochemistry, LGR5+ cells per organoid, normal person-derived organoids. The settings on record: TNFα-treated vs TNFα-untreated. The protocol: (§11) After removing the culture medium, the organoids were washed with PBS and fixed in cold 4% paraformaldehyde at room temperature for 30 minutes. The fixed organoids were washed with PBS and embedded in HistoGel (Thermo Fisher). HistoGel blocks were used for paraffin embedding and sectioned for histologic examination and IHC. Histologic evaluation was performed using hematoxylin-eosin-stained sections. After heating-induced epitope retrieval with citrate buffer, IHC was performed using the following antibodies: cleaved caspase-3 (Asp175, 1:200 dilution, Cell Signaling), E-cadherin (1:100 dilution, Abcam), and LGR5 (1:400 dilution, Abcam). The number of LGR5+ cells per organoid in each of the TNFα-treated group (n=10) and the TNFα-untreated group (n=10) was counted, and statistical analysis was performed by ANOVA using Bonferroni's multiple comparison test (*** p<0.001).

Experiment [14] concerns LGR5. Description: Immunohistochemistry, LGR5+ cells per organoid, Crohn's disease patient-derived organoids. The settings on record: TNFα-treated; vs normal person-derived organoids. The protocol: as §11
Setting [15] is: TNFα 30 and 100 ng/mL + high concentration (infliximab 10 μg/mL or PGE2 10 nM).
Where [16] appears, read: 30 or 100 ng/mL TNFα + high concentration (infliximab 10 μg/mL, PGE2 10 nM).
Setting [17] is: 30 ng/mL TNFα + high concentration (infliximab 10 μg/mL or PGE2 10 nM), after 16 hours.
The mark [18] stands for this setting: 0, 30 and 100 ng/mL TNFα, dependence on concentration.
Setting [19] is: 30 or 100 ng/mL human recombinant TNFα.
Setting [20] is: 30 ng/mL TNFα vs TNFα-untreated.

As for `CCCCC[C@H](O)/C=C/[C@H]1[C@H](O)CC(=O)[C@@H]1C/C=C\CCCC(=O)O` [PGE2, prostaglandin E2], the organoid reconstitution rate entry in [1] (100 ng/mL TNFα + 10 nM PGE2) is on record as “significantly improved compared to when the organoids were not treated with PGE2”; in experiment [1] (setting [15]) it was “the restoration of the organoid reconstitution rates was improved”; in experiment [2] (setting [16]), “levels similar to those of TNFα-untreated normal person-derived organoids”. Moreover, the “cell viability (MTT)” value in [3] (100 ng/mL TNFα + 10 nM PGE2) is on record as “significantly improved compared to when the organoids were not treated with PGE2”; in experiment [4] (setting [16]), “levels similar to those of TNFα-untreated normal person-derived organoids”. Moreover, the unhealed wound area result in experiment [5] (setting [17]) was “reduced, compared to when the organoids were treated with TNFα alone”. The “LGR5 expression (qPCR)” value in the experiment with LGR5 [6] is given as “increased”. The “LGR5 expression (FACS, LGR5+ ISCs population)” value with LGR5 [7] was “increased”.
For the molecule TNFα, the organoid reconstitution rate entry in [1] (setting [18]) is on record as “decreased”; in [1] (30 ng/mL TNFα vs not treated, differentiation medium 10 days, jejunum and ileum), “decreased”; in experiment [2] (30 ng/mL TNFα, differentiation medium 10 days, jejunum and ileum), “decreased compared to those of the normal person-derived organoids”; in experiment [2] (setting [19]), “decreased in a concentration-dependent manner”. The “cell viability (MTT)” value in experiment [3] (setting [18]) was “also decreased”; in experiment [3] (setting [20]), “decreased in both the jejunum and the ileum”; in [4] (setting [20]), “decreased in both the jejunum and the ileum”. For the same molecule, the apoptosis entry in experiment [4] (setting [19]) is “increased in a concentration-dependent manner”. Further, the unhealed wound area entry is “no significant decrease in the unhealed wound area even over time” in experiment [5] (TNFα alone, 0-24 hours) and “the wound area was recovered after 16 hours” in [10]. Also, the “number of EdU+ cells” value in [8] is listed as “TNFα-untreated organoids increased compared to that in TNFα-treated organoids”; in experiment [9], “decreased compared to that of the normal person-derived organoids”. The results for the “number of CC3−, TUNEL+ and CC3+, TUNEL+ cells (cell death)” value in experiment [11] and in experiment [12] were “increased” and “necroptosis more actively occurred than that in the normal person-derived organoids”, respectively. Further, the entries for the “number of LGR5+ cells per organoid” value with LGR5 [13] and in the experiment with LGR5 [14] were “increased” and “decreased in the Crohn's disease patient-derived organoids compared to the normal person-derived organoids”, respectively.
On to infliximab, for which the organoid reconstitution rate entry in [1] (setting [15]) is on record as “the restoration of the organoid reconstitution rates was improved”; in experiment [2] (setting [16]) it was “levels similar to those of TNFα-untreated normal person-derived organoids”; in experiment [2] (TNFα + low concentration infliximab (1 μg/mL) alone) it was “did not completely restore”. The “cell viability (MTT)” value in [4] (setting [16]) was “levels similar to those of TNFα-untreated normal person-derived organoids”. Moreover, the unhealed wound area result in experiment [5] (setting [17]) is listed as “reduced, compared to when the organoids were treated with TNFα alone”. Further, in the experiment on LGR5 [6], the “LGR5 expression (qPCR)” value is “no difference in LGR5 expression depending on the concentration of TNFα”. The “LGR5 expression (FACS, LGR5+ ISCs population)” value in the experiment on LGR5 [7] is “no difference in LGR5 expression from when the organoids were treated with TNFα”.
